# Measurements as given in PubChem BioAssay AID2060349 (Molecular Pharmacology Branch, DTP, NCI, 2025).
# Tested on: 762968-020-R-J2-PDC spheroids viability
# Experiment: Anticancer human tumor 762968-020-R-J2-PDC patient-derived colon carcinoma cell line growth inhibition [TAK]
# Details: spheroids with HUVEC and MSC; for IC50: curve of first compound; for viability, T/C: stronger effect = lower value
# Description: Combinatorial screen of targeted agents with TAK-243 and ipatasertib in multi-cell type tumor spheroids
# A high-throughput screen of multi-cell type tumor spheroids was designed to identify active combinations of targeted small molecules and TAK-243 or ipatasertib. Complex spheroids include a stromal component modeled by human endothelial cells (HUVEC) and fibroblasts modeled by human mesenchymal stem cells (MSCs). The concentration ranges selected for each drug and investigational agent were based upon clinically achievable concentrations if the clinical Cmax of the agent was known.
# Compounds. The drugs and investigational agents: TAK-243 (785004), ipatasertib (767898), everolimus (733504), selumetinib (741078), bortezomib (756655), trametinib (758246), ixazomib (758254), vemurafenib (761431), dabrafenib (764134), sapanisertib (764658), alpelisib (765974), and copanlisib (816437), were obtained from the National Cancer Institute (NCI) Developmental Therapeutics Program Chemical Repository. The FDA-approved anticancer drug set is available from the NCI Developmental Therapeutics Program. […] The stock solutions were prepared in dimethyl sulfoxide (DMSO, Sigma-Aldrich, St. Louis, MO, cat. D2650) at 800-fold the tested concentration and stored at -70 degrees C prior to their use. All drugs and investigational agents were tested over a range starting from a high concentration at or near the clinical Cmax and decreasing in half-log increments. If the clinical Cmax for an agent had not been determined, the highest concentration tested was 10 microM.
# NCI60 Cell Culture. NCI60 cell lines were obtained from the NCI Developmental Therapeutics Program Tumor Repository. For each lot of cells, the Repository performed Applied Biosystems AmpFLSTR Identifiler testing with PCR amplification to confirm consistency with the published Identifier STR profile for each cell line. Cells were kept in continuous culture for no more than 20 passages. The optimal seeding densities for each of the cell lines at each time point assessed were determined prior to performing the concentration response studies. Briefly, the NCI60 human tumor lines were grown as monolayers in RPMI 1640 medium supplemented with 10% FBS and 2 mmol/L L-glutamine.
# An additional 2 lines were from the NCI60 cell line panel including melanomas, MALME-3M and SK-MEL-2. Pooled donor human umbilical vein endothelial cells (HUVEC, Lonza, cat. CC-2519) and human mesenchymal stem cells (hMSC, Lonza, cat. PT-2501) were purchased from Lonza (Walkersville, MD).
# PDMR cell lines were grown in complete medium (DC medium): Dulbecco's modified Eagle's medium (DMEM)/F12 supplemented with 5% fetal bovine serum (FBS), 2 mM L-glutamine, 100 U/mL penicillin and 100 µg/ml streptomycin, 0.4 µg/ml hydrocortisone, 10 ng/ml epidermal growth factor (EGF) recombinant human protein, 24 µg/mL adenine, and 0.1 mg/mL primocin. During culture from frozen stock vials, PDMR cells were cultured in the same medium containing 10 µM Y-27632 (see Table 3). The PDCs were cultured in complete DMEM/F12 media without 10 microM Y-27632 dihydrochloride for at least two passages prior to the screen. The pooled donor HUVEC and hMSC were cultured in endothelial cell growth medium 2 (PromoCell, Heidelberg, Germany, cat. C-22011) and mesenchymal stem cell growth medium 2 (PromoCell, cat. C-28009), respectively. For all experiments, HUVEC and hMSC were used at passages </=5.
# For the pre-screen, cell seeding densities were determined from a titration spanning the range from 5,000 to 313 cells per well. The mct-spheroids including 60% malignant cells, 25% HUVEC and 15% MSC dispensed as a mixture into U-bottom Ultra-Low Attachment 384-well plates (Corning, NY)
# High-throughput Drug Combination Screening.
# Prior to their inoculation into 384-well plates, malignant cells, HUVEC, and hMSC were removed from T flasks using TrypLE express (Thermo Fisher Scientific, cat. 12605036) and harvested by centrifugation for 5 min at 233 x g. […]
# 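Further: spheroids exposed to drug for 7 days before readout.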
# 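Wherever viability, T/C is given: 100% = DMSO vehicle control wells.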
structure (smiles),measurement,setting,value
COC1CC2CCC(C)C(O)(O2)C(=O)C(=O)N2CCCCC2C(=O)OC(C(C)CC2CCC(OCCO)C(OC)C2)CC(=O)C(C)C=C(C)C(O)C(OC)C(=O)C(C)CC(C)C=CC=CC=C1C (stereo not given) + CC(C)NCC(C(=O)N1CCN(c2ncnc3c2C(C)CC3O)CC1)c1ccc(Cl)cc1,IC50,second compound 0.3 µM,> 100 nM
same,IC50,second compound 0.949 µM,> 100 nM
same,IC50,second compound 3 µM,> 100 nM
same,IC50,second compound 9.49 µM,> 100 nM
same,IC50,second compound 30 µM,> 100 nM
same,"viability, T/C","second compound 0.3 µM, first compound 0.000316 µM",102%
same,"viability, T/C","second compound 0.3 µM, first compound 0.001 µM",106%
same,"viability, T/C","second compound 0.3 µM, first compound 0.00316 µM",103%
same,"viability, T/C","second compound 0.3 µM, first compound 0.01 µM",103%
same,"viability, T/C","second compound 0.3 µM, first compound 0.0316 µM",103%
same,"viability, T/C","second compound 0.3 µM, first compound 0.1 µM",102%
same,"viability, T/C","second compound 0.949 µM, first compound 0.000316 µM",104%
same,"viability, T/C","second compound 0.949 µM, first compound 0.001 µM",104%
same,"viability, T/C","second compound 0.949 µM, first compound 0.00316 µM",111%
same,"viability, T/C","second compound 0.949 µM, first compound 0.01 µM",105%
same,"viability, T/C","second compound 0.949 µM, first compound 0.0316 µM",99.5%
same,"viability, T/C","second compound 0.949 µM, first compound 0.1 µM",92.3%
same,"viability, T/C","second compound 3 µM, first compound 0.000316 µM",107%
same,"viability, T/C","second compound 3 µM, first compound 0.001 µM",109%
same,"viability, T/C","second compound 3 µM, first compound 0.00316 µM",109%
same,"viability, T/C","second compound 3 µM, first compound 0.01 µM",105%
same,"viability, T/C","second compound 3 µM, first compound 0.0316 µM",95.1%
same,"viability, T/C","second compound 3 µM, first compound 0.1 µM",97.5%
same,"viability, T/C","second compound 9.49 µM, first compound 0.000316 µM",104%
same,"viability, T/C","second compound 9.49 µM, first compound 0.001 µM",105%
same,"viability, T/C","second compound 9.49 µM, first compound 0.00316 µM",95.5%
same,"viability, T/C","second compound 9.49 µM, first compound 0.01 µM",101%
same,"viability, T/C","second compound 9.49 µM, first compound 0.0316 µM",93.9%
same,"viability, T/C","second compound 9.49 µM, first compound 0.1 µM",100%
same,"viability, T/C","second compound 30 µM, first compound 0.000316 µM",92.2%
same,"viability, T/C","second compound 30 µM, first compound 0.001 µM",89%
same,"viability, T/C","second compound 30 µM, first compound 0.00316 µM",92.3%
same,"viability, T/C","second compound 30 µM, first compound 0.01 µM",86.4%
same,"viability, T/C","second compound 30 µM, first compound 0.0316 µM",92.2%
same,"viability, T/C","second compound 30 µM, first compound 0.1 µM",84.5%
